From ChEMBL document CHEMBL1122177, “Mechanism of action of 5-nitro-2'-deoxyuridine” (J Med Chem, 1982)

Legend:
Assay type in all cases: functional, cell-based
Conditions in all cases: Mus musculus
L1210 [1] = experiment: Effective concentration for growth inhibition of L1210 cells in culture in the presence of 10 uM of dUrd
L1210 [2] = experiment: Effective concentration to inhibit growth of L1210 cells in culture
S49 [3] = experiment: Effective concentration to inhibit growth of S49 cells in culture
L1210 [4] = experiment: Effective concentration for growth inhibition of L1210 cells in culture in the presence of 10 uM of dThd
S49 [5] = experiment: Effective concentration for growth inhibition of S49 cells in culture in the presence of 10 uM of dUrd

EC50 (L1210 [1]): 0.12 µM
EC50 (L1210 [2]): 0.033 µM
EC50 (L1210 [4]): > 3 µM
Compound: O=c1[nH]c(=O)n([C@H]2C[C@H](O)[C@@H](CO)O2)cc1[N+](=O)[O-]
EC50 (S49 [3]): 0.03 µM
EC50 (S49 [5]): 0.06 µM
